These results are taken from patent US20240181049A1, “HARNESSING THE POWER OF MICROBIOTA AND METABOLITES FOR THE TREATMENT OF CANCER” (UTI LIMITED PARTNERSHIP, priority 2019, published 2024).

The subject of one assay is MC38. Briefly: MC38 tumors in SPF mice, inosine or B. pseudolongum + anti-CTLA-4. It counts as in vivo. Particulars: oral gavage. Here is the method:
FIG. 35A-35H. Inosine and live B. pseudolongum improve anti-CTLA-4 therapy efficacy in moderately diverse and complex microbiomes. A) Schematic overview of experimental setup to assess the effect of inosine on anti-tumor immunity in gnotobiotic mice (Oligo-MM12) stably colonized with 12 bacterial species. Upon palpable tumors, Oligo-MM12 colonized mice were treated with 100 μg anti-CTLA-4 i.p. or Isotype antibody (5 times every 72 hours). In addition, inosine (300 mg/KG/BW) or PBS was given daily orally through gavage. (B) Pictures of tumors and (C) tumor weight are shown at day 20. scale bars: 1 cm. (D) Quantification of intratumoral IFN-γ+ cells amongst CD8+ or CD4+ T cells are shown. (E) Schematic overview of experimental setup to assess the effect of inosine and B. pseudolongum on anti-tumor immunity in SPF mice. Following MC38 injection some mice received antibiotics (ABX), specifically Ampicillin 1 mg/ml, Colistin 1 mg/ml and Streptomycin 5 mg/ml for 7 days in the drinking water. Upon palpable tumors, antibiotics were removed and 100 μg anti-CTLA-4 (5 times every 72 hours) started. Mice concomitantly received either PBS, inosine (300 mg/KG/BW daily), B. pseudolongum or heat inactivated (H.i.) B. pseudolongum orally through gavage (5 times every 72 hours). […] (H) Quantification of intratumoral IFN-γ+ cells amongst CD8+ or CD4+ cells are shown. […]

Another assay deals with MC38 tumor cells. Kind of assay: MC38 tumor cell viability in vitro. It counts as cell-based. The settings on record: direct exposure in vitro, 72 hours. Here is the method:
FIG. 17A-17B. […] (a) MC38 tumor cells were treated with the indicated doses of inosine in vitro for 72 hours. Cell death and survival was assessed through flow cytometry. (b) MC38 tumor cells expressing full length ovalbumin (MC38-OVA) were treated with the indicated doses of inosine in vitro for 72 hours. In parallel, OVA-specific naïve CD4 and CD8 T cells from spleens of OT-II and OT-I mice, respectively, were activated with anti-CD3/anti-CD28 beads and rmIL-2 (20 IU/ml) for 72 hours. Inosine was then washed away from conditioned MC38-OVA cells and fresh medium together with activated T cells were added (100,000 MC38-OVA cells+25,000 CD4 cells+25,000 CD8 cells). 72 hours later, cell death and survival of MC38-OVA cells was assessed through flow cytometry. Grey and black dash-dotted lines indicate MC38-OVA cell viability and death when co-cultured with naïve OVA-specific CD4 and CD8 T cells. Data are mean±SEM and pooled from two individual experiments. n=6 biological replicates/condition. #, & P<0.05, **, P<0.01; (**=0.0001 vs 10 mM, #0.001 vs 10 mM and & 1 vs 10 mM)

Another assay concerns naïve CD4^+ T cells. Briefly: Naive CD4+ T cells with anti-CD3/anti-CD28 coated beads. It counts as cell-based, mice. The text has this: FIG. 4A-4K: Effect of inosine on T cell differentiation and dependency on classical dendritic cells of ICB therapy efficacy. (a) Scatter plot of untargeted metabolomics data in the serum of anti-CTLA-4 treated, tumor-bearing B.p. monocolonized compared to C.sp. monocolonized and germ-free (GF) mice. Grey circles or dotted grey circles depict inosine or inosine fragments/adducts, respectively. […] (c) Naïve CD4^+ T cells were co-cultured with bone marrow derived dendritic cells and IFN-γ. Quantification of T-bet^+CD3ε^+CD4^+ T cells 48 hours after co-culture in the presence or absence of inosine, A2A receptor inhibitor (ZM241385), cell permeable cAMP (db-cAMP) and protein kinase A inhibitor (RP-8-CPT-CAMPS). (d) Same as (c) without IFN-γ. (e) Representative plot and quantification (left and right panel) of phospho-CREB (Ser133) levels in naïve CD4^+ T cells cultured with anti-CD3/anti-CD28 coated beads for 1 hour in the presence or absence of inosine. (f) Schematic overview of experimental setup to deplete classical dendritic cells during MC38 tumor challenge and anti-CTLA-4 treatment. Intratumoral (g) frequency of CD8^+ T cells (h) IFN-γ^+CD8^+ T cells. (i and j) same as (g and h), but CD4^+ T cells and (k) tumor weight at […]. Data are mean±SEM and pooled from two individual experiments (a-b) n=5-8 samples/group (c-e) 10-15 biological replicates/group (f-k) 10 mice/group. *, P<0.05; **, P<0.01; ***, P<0.001; ****, P<0.0001
FIG. 16A-16J: Context dependent effect of inosine on Th1 T cell differentiation. (a) Naïve CD4^+ T cells were co-cultured with bone marrow derived dendritic cells without IFN-γ. Quantification of T-bet^+CD3e^+CD4^+ T cells 48 hours after co-culture in the presence or absence of inosine and anti-CTLA-4, as indicated. (b) Naïve CD4^+ T cells were cultured anti-CD3/anti-CD28 coated beads at a ratio of 1:1 without IFN-γ for 48 hours. Representative plot and quantification of IL12Rβ2 surface expression on CD4^+ T cells in the presence or absence of inosine (left and right panel). (c) Quantification of T-bet^+CD3e^+CD4^+ T cells 48 hours after co-culture in the presence or absence of inosine, db-cAMP and anti-CTLA-4 as indicated. (d) Naïve, A2AR-deficient CD4^+ T cells were cultured with anti-CD3/anti-CD28 coated beads at a ratio of 1:1 without IFN-γ. Quantification of T-bet^+CD3e^+CD4^+ T cells 48 hours after co-culture in the presence or absence of inosine or db-cAMP (e) Representative plot and quantification (left and right panel) of pCREB expression of anti-CD3/anti-CD28 bead co-cultured CD4^+ T cells in the presence or absence of inosine or db-cAMP 1 hour after stimulation. Analysis through flow cytometry. (f and g) Naïve, wild type CD4^+ T cells were cultured with anti-CD3/anti-CD28 coated beads at a ratio of 1:1. Il12rb2 and Ifng gene transcripts (normalized to Gapdh) were evaluated 24 and 48 hours following inosine (1 mM) stimulation. Expression was normalized to cells treated with medium. Analysis through quantitative PCR assay (h) Naïve CD4^+ T cells were cultured with anti-CD3/anti-CD28 coated beads at a ratio of 1:1 without IFN-γ for 24 hours. Then inosine or vehicle was added at the indicated concentrations for another 48 hours before T cell differentiation and activation was assessed. (i) Adenosine concentrations in the duodenal-, jejunal- or cecal content of B.p. monocolonized mice and in the serum of B.p. or C.sp. monocolonized anti-CTLA-4 treated mice. (j) Naïve CD4^+ T cells were cultured with anti-CD3/anti-CD28 coated beads at a ratio of 1:1 without IFN-γ for 24 hours. Adenosine or was added then in the indicated concentrations for another 48 hours followed by T cell differentiation and activation was assessed through flow cytometry. […]

Regarding `OC[C@H]1O[C@@H](n2cnc3c(O)ncnc32)[C@H](O)[C@@H]1O` [inosine], the “efficacy of anti-CTLA-4” value in the assay with MC38 is on record as “could promote the efficacy of anti-CTLA-4”. Further, the tumor cell viability entry in the assay with MC38 tumor cells was “did not exert any effects on tumor cell viability”; in the assay with MC38 tumor cells (listed as Inosine), “does not directly impact tumor cell viability”. Besides, the “phosphorylation of CREB (Ser133)” value in the assay on naïve CD4^+ T cells (1 hour) is listed as “led to phosphorylation”. For the same molecule, the Th1 differentiation entry in the assay with naïve CD4^+ T cells (bead-activated naïve T cells, no DCs) is reported as “enhanced Th1 differentiation, even in the absence of IFN-γ”. Besides, in the assay on naïve CD4^+ T cells (inosine 1 mM, 24 and 48 hours, quantitative PCR), the “Il12rb2 and Ifng gene transcription” value was “sustained upregulation”. Further, the “Th1 activation, inosine dose response” value with naïve CD4^+ T cells (physiological concentrations observed in sera of B.p. but not C.sp. monocolonized mice) is listed as “sufficient to induce Th1 activation”. The IL12Rβ2 surface expression result in the assay with naïve CD4^+ T cells (without IFN-γ, 48 hours) was “upregulation of IL12Rβ2”.
